Results reported in article PMC5301048, “Selection and early clinical evaluation of the brain‐penetrant 11β‐hydroxysteroid dehydrogenase type 1 (11β‐HSD1) inhibitor UE2343 (Xanamem™)” (British Journal of Pharmacology, 2017).
Values after ≈ are worked out from the molar mass of the structure shown.

Legend:
[1] = Aqueous solubility at pH 7.4; type: physicochemical; details: aqueous phosphate buffer, thermodynamic from solid, pH 7.4, room temperature, mean ± SD [n]
Method: The concentration was quantified by HPLC with reference to a standard calibration curve. The solubility was calculated using the peak areas determined by integration of the peak found at the same retention time as the principal peak in the standard injection.

[2] = target: T1, CYP1A2 (Homo sapiens, UniProt P05177); assay: Cytochrome P450 inhibition, CYP1A2; type: in vitro ADME; details: human liver microsomes; read-out: CYP450 isoform 1A2 IC50
T1 construct: tissue Cyprotex Discovery Limited; host or cells: human liver microsomes
T1 sequence (P05177 1-516): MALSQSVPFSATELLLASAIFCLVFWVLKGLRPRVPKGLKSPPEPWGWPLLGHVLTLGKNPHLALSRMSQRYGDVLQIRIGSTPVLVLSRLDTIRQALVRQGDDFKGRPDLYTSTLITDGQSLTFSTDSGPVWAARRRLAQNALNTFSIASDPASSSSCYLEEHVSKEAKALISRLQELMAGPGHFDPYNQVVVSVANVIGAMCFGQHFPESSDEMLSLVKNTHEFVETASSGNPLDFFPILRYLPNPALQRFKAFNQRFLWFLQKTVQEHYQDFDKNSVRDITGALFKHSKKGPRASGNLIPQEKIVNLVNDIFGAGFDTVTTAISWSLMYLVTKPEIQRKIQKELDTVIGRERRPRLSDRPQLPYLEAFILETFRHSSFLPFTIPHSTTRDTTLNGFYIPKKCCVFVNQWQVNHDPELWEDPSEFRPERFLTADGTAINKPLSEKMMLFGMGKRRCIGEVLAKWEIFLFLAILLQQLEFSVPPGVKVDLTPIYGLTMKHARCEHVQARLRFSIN
Method: (§1) Testing was performed by Cyprotex Discovery Limited, Cheshire, UK. Six test compound concentrations (0.4, 1, 4, 10, 40 and 100 μM; final DMSO concentration 0.25%, final microsome concentration 0.25 mg·mL^−1) were either pre‐incubated for 30 min in the absence and presence of NADPH or underwent a 0 min pre‐incubation with human liver microsomes. At the end of the pre‐incubation period, the probe substrate for each cytochrome P450 (CYP450) isoform (30 μM) and NADPH (1 mM) were then added (final DMSO concentration 0.3%), and the samples were incubated for 5 min at 37°C. Probe substrates were as follows: 1A2 – phenacetin, 2C9 – diclofenac, 2C19 – mephenytoin, 2D6 – dextromethorphan, 3A4 – midazolam and testosterone. Samples were subjected to LC–MS/MS analysis to determine metabolite concentrations. A decrease in the formation of the metabolite compared with vehicle control was used to calculate an IC50 value (test compound concentration which produces 50% inhibition) for each experimental condition.

[3] = target: T2, CYP3A4 (Homo sapiens, UniProt P08684); assay: Cytochrome P450 inhibition, CYP3A4; type: in vitro ADME; details: human liver microsomes; read-out: CYP450 isoform 3A4 IC50
T2 construct: tissue Cyprotex Discovery Limited; host or cells: human liver microsomes
T2 sequence (P08684 whole entry, canonical isoform): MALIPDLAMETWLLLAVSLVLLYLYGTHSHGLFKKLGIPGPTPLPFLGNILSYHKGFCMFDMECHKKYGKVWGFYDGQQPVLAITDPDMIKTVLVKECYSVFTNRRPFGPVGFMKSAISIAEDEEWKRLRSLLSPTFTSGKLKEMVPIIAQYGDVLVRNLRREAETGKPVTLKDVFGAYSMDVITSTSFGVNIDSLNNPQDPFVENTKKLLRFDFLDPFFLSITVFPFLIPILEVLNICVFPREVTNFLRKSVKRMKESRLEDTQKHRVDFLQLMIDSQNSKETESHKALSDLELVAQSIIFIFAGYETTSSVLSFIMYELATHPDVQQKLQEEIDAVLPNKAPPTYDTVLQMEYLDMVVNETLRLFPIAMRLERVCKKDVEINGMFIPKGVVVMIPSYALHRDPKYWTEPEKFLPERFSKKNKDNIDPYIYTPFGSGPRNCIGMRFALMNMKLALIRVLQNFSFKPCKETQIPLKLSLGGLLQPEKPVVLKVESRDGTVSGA
Method: as §1

[4] = test system: CYP450 enzymes; assay: Time-dependent cytochrome P450 inhibition; type: in vitro ADME, human; details: 30 min pre-incubation ± NADPH; in words
Method: as §1

[5] = test system: 11β‐HSD1 in the liver; assay: Single ascending dose study, urinary THFs/THE ratio; type: in vivo; details: human
Method: A double‐blind, randomized, placebo‐controlled single ascending dose study was carried out at Simbec Research Ltd, Merthyr Tydfil, UK. Each cohort consisted of six healthy male subjects and two females of non‐child bearing potential. Two male ‘dose leader’ subjects (1 active : 1 placebo) were dosed first in each cohort. The remainder of the cohort (5 active : 1 placebo) were dosed 24 h later. Dose cohorts were 2, 5, 10, 18, 25 and 35 mg. Safety, pharmacokinetic and pharmacodynamic assessments were made at pre‐determined time‐points during each part of the study. Dose escalation was dependent upon satisfactory review of the blinded safety (up to Day 6) and pharmacokinetic (up to 24 h post‐dose) data from the preceding cohort.
Laboratory evaluation of clinical safety parameters was carried out using standard validated methods. Measurement of plasma pharmacodynamic markers [adrenocorticotropic hormone (ACTH), cortisol, 4‐androstenedione, testosterone and dehydroepiandrosterone sulphate (DHEA‐s)] was carried out using commercially available kits. Each method was fully validated prior to analysis. Urinary steroid metabolites were measured according to established methods (Boonen et al., 2013). UE2343 levels in plasma, urine and CSF was determined by LC–MS/MS using fully validated methods.
The data and statistical analysis comply with the recommendations on experimental design and analysis in pharmacology (Curtis et al., 2015). Levels of probability, P < 0.05 were deemed to constitute the threshold for statistical significance. Pharmacokinetic parameters, except Tmax (time of maximum observed drug concentration), are given as mean ± coefficient of variation (CV%). Tmax is given as median ± range. For each of the pharmacodynamic parameters [ACTH, cortisol, adrenal androgens, tetrahydrocortisols (THFs)/tetrahydrocortisone (THE) ratio], the maximum % change from baseline for each subject was subjected to ANOVA. For selected data, an additional covariate factor for the baseline was also included in the ANOVA/analysis of covariance (ANCOVA) model. Associated P‐values <0.05 for each comparison have been presented.
11β‐HSD1 is predominantly located in the liver and adipose tissue. Cortisol (F) and cortisone (E) are cleared from the liver via the enzymes 5α‐reductase and 3α‐HSD to generate tetrahydro (TH) metabolites that are eliminated in the urine. Measurement of urinary TH metabolite ratios thus provides a surrogate measure of 11β‐HSD1 inhibition in the liver (Best and Walker, 1997). Following a single dose of UE2343, there was a statistically significant reduction in the urinary THFs/THE ratio between 0 and 4 h at doses of 18, 25 and 35 mg, equating to a reduction of 58, 55 and 50% respectively (Figure 4A).

solubility [1]: 200 µg/mL (≈ 524 µM) | IC50 [2]: > 50 µM | IC50 [3]: > 50 µM | time‐dependent inhibition of CYP450 enzymes [4]: No time‐dependent inhibition
SMILES: O=C(c1csc(-c2cn[nH]c2)c1)N1C2CCC1CC(O)(c1ncccn1)C2 (centres unmarked) [compound 4]
reduction in the urinary THFs/THE ratio ([5]; single dose 10 mg, 4–8 h): 79% | reduction in the urinary THFs/THE ratio ([5]; single dose 18 mg, 0–4 h): 58% | reduction in the urinary THFs/THE ratio ([5]; single dose 18 mg, 4–8 h): 86% | reduction in the urinary THFs/THE ratio ([5]; single dose 25 mg, 0–4 h): 55% | reduction in the urinary THFs/THE ratio ([5]; single dose 25 mg, 4–8 h): 83% | reduction in the urinary THFs/THE ratio ([5]; single dose 35 mg, 0–4 h): 50% | reduction in the urinary THFs/THE ratio ([5]; single dose 35 mg, 4–8 h): 83%
